Measurements published in patent publication US8466088B2, “Herbicidal compositions containing benzoylpyrazole compounds” (Ishihara Sangyo Kaisha, Ltd., priority 2007, dated 2013).
Like-named read-outs stand apart in the source and are kept apart here.

How the values were obtained:
various plants = experiment: Example 1: pot test, foliar treatment, visually observed growth inhibition of other sown plants (Tables 5-1 to 5-137); type: in vivo; details: Ipomoea, foliar, ivyleaf morningglory 1.5 to 2.1 leaf stage, read-out: Growth inhibition rate (%) of ivyleaf morningglory, Measured value
Description: When the herbicidal activity in a case where two active ingredients are combined, is larger than the simple sum of the respective herbicidal activities of the two active ingredients (the expected activity), it is called a synergistic effect. The activity expected by the combination of two active ingredients can be calculated as follows (Colby S. R., “Weed”, vol. 15, p. 20-22, 1967). E=α+β−(α×β+100) where
α: growth inhibition rate when treated with x (g/ha) of herbicide X,
β: growth inhibition rate when treated with y (g/ha) of herbicide Y,
E: growth inhibition rate expected when treated with x (g/ha) of herbicide X and y (g/ha) of herbicide Y.
That is, when the actual growth inhibition rate (measured value) is larger than the growth inhibition rate by the above calculation (calculated value), the activity by the combination can be regarded as showing a synergistic effect.
Upland field soil was put into a 1/1,000,000 hectare pot, and seeds of various plants were sown. When the respective plants reached predetermined leaf stage, herbicidal compositions in predetermined amounts were diluted with water in an amount corresponding to 300 L/ha and applied for foliar treatment by a small sprayer.
On the 14th to 28th day after application, the state of growth of the respective plants was visually observed to determine the growth inhibition rate (measured value) in accordance with the following evaluation standard. Further, in accordance with the above Colby's formula, the growth inhibition rate (calculated value) was calculated. In Tables, with respect to the compound A, Compound Nos. in Table 1 or 3 are described, and with respect to other herbicidal compounds, common names are described.

velvetleaf = experiment: Example 1: pot test, foliar treatment, visually observed growth inhibition of velvetleaf; type: in vivo, Abutilon theophrasti MEDIC.; details: Abutilon theophrasti, foliar, foliar, read-out: Growth inhibition rate (%) of velvetleaf, Measured value
crabgrass = experiment: Example 1: pot test, foliar treatment, visually observed growth inhibition of crabgrass; type: in vivo; details: Digitaria sanguinalis, foliar, read-out: Growth inhibition rate (%) of crabgrass, Measured value
[1] = 3.2 to 4.1 leaf stage, 21st day after application
[2] = 4.0 to 4.4 leaf stage, 22nd day after application

In the case of `CCNc1nc(Cl)nc(NC(C)C)n1` [Atrazine, atrazine, reference compound], the inhibition at 31 g/ha (various plants; 23rd day after application, 31 g/ha) is reported as 0%, the inhibition at 90 g/ha (various plants; 23rd day after application, 90 g/ha) is reported as 0% and the inhibition at 180 g/ha (various plants; 23rd day after application, 180 g/ha) is reported as 0%. It also gave an inhibition at 500 g/ha (various plants; 23rd day after application, 500 g/ha) of 83%, an inhibition at 125 g/ha (velvetleaf; 2.4 to 3.2 leaf stage, on the 22nd day after application, active ingredient amount 125 g/ha) of 10% and an inhibition at 1000 g/ha (velvetleaf; 2.8 to 3.6 leaf stage, 24th day after application, 1000 g/ha) of 15%. It also gave an inhibition at 1500 g/ha (velvetleaf; 2.8 to 3.6 leaf stage, 24th day after application, 1500 g/ha) of 15%, an inhibition at 2000 g/ha (velvetleaf; 2.8 to 3.6 leaf stage, 24th day after application, 2000 g/ha) of 25% and an inhibition at 125 g/ha (velvetleaf; 3.0 to 3.5 leaf stage, 20th day after application, 125 g/ha) of 0%. For the same compound, the inhibition at 125 g/ha (velvetleaf; 3.0 to 3.5 leaf stage, 21st day after application, 125 g/ha) was 10%, the inhibition at 250 g/ha (velvetleaf; 3.0 to 3.5 leaf stage, 21st day after application, 250 g/ha) was 20% and the inhibition at 150 g/ha (velvetleaf; 3.0 to 3.8 leaf stage, 15th day after application) was 0%. For the same compound, the inhibition at 175 g/ha (velvetleaf; [1]) was 3%, the inhibition at 375 g/ha (velvetleaf; [1]) was 5% and the inhibition at 150 g/ha (velvetleaf; 3.2 to 5.0 leaf stage, 21st day after application) was 60%. For the same compound, the inhibition at 150 g/ha (velvetleaf; 3.5 to 4.3 leaf stage, 21st day after application) was 0%, the inhibition at 175 g/ha (velvetleaf; [2]) was 20% and the inhibition at 375 g/ha (velvetleaf; [2]) was 25%. It also gave an inhibition at 175 g/ha (crabgrass; 2.7 to 3.6 leaf stage, 21st day after application, 175 g/ha) of 0%, an inhibition at 375 g/ha (crabgrass; 2.7 to 3.6 leaf stage, 21st day after application) of 20% and an inhibition at 375 g/ha (crabgrass; 3.1 to 4.0 leaf stage, 22nd day after application) of 0%. The inhibition at 125 g/ha (crabgrass; 3.2 to 4.3 leaf stage, on the 22nd day after application, active ingredient amount 125 g/ha) was 0%, the inhibition at 250 g/ha (crabgrass; 3.2 to 4.3 leaf stage, on the 22nd day after application, active ingredient amount 250 g/ha) was 0% and the inhibition at 150 g/ha (crabgrass; 3.8 to 4.4 leaf stage, 21st day after application, 150 g/ha) was 0%. The inhibition at 125 g/ha (crabgrass; 4.0 to 4.5 leaf stage, 21st day after application, 125 g/ha) was 10%, the inhibition at 250 g/ha (crabgrass; 4.0 to 4.5 leaf stage, 21st day after application, 250 g/ha) was 10% and the inhibition at 125 g/ha (crabgrass; 4.3 to 4.5 leaf stage, 20th day after application, 125 g/ha) was 0%. For the same compound, the inhibition at 250 g/ha (crabgrass; 4.3 to 4.5 leaf stage, 20th day after application, 250 g/ha) was 0%.
`CCOCN(C(=O)CCl)c1c(C)cccc1CC` [Acetochlor] showed an inhibition at 100 g/ha (various plants; 14th day after application, 100 g/ha) of 0%, an inhibition at 150 g/ha (various plants; 14th day after application, 150 g/ha) of 0% and an inhibition at 200 g/ha (various plants; 14th day after application, 200 g/ha) of 0%. It also gave an inhibition at 150 g/ha (velvetleaf; 2.0 to 2.5 leaf stage, 21st day after application) of 0%, an inhibition at 150 g/ha (velvetleaf; 3.3 to 4.2 leaf stage, 22nd day after application) of 0% and an inhibition at 300 g/ha (velvetleaf; 3.3 to 4.2 leaf stage, 22nd day after application, 300 g/ha) of 0%. It also gave an inhibition at 400 g/ha (crabgrass; 3.3 to 4.2 leaf stage, 24th day after application, 400 g/ha) of 0%, an inhibition at 600 g/ha (crabgrass; 3.3 to 4.2 leaf stage, 24th day after application, 600 g/ha) of 0% and an inhibition at 800 g/ha (crabgrass; 3.3 to 4.2 leaf stage, 24th day after application, 800 g/ha) of 0%. For the same compound, the inhibition at 1600 g/ha (crabgrass; 3.3 to 4.2 leaf stage, 24th day after application, 1600 g/ha) was 0%.
